These are literature values, as cited in patent US11304990B2, “Use of known compounds—intracellular infections” (ISR IMMUNE SYSTEM REGULATION HOLDING AB (PUBL), priority 2017, dated 2022).

Data set [1] has as its system pituitary type I GnRH receptors.
The next data set deals with CD4 T-lymphocyte. The settings on record: diabetes-prone BB rats exhibiting an AIDS-like lymphocyte profile.

pKd: −log10 of the molar value.

Take “pyroGlu-His-Trp-Ser-Tyr-Gly-Leu-Arg-Pro-Gly-NH2 [GnRH I, decapeptide gonadotropin releasing hormone]”: in data set [1] (central pituitary binding compared with breast cancer cells), the “fold higher affinity, pituitary vs breast cancer cell receptors” value is reported as 1000 fold. Besides, the pKd (commonly −log10 of the Kd, conventionally taken in molar units) in data set [1] (central pituitary binding, read-out: binding affinity (Kd)) is 8.32. In addition, the “CD4 T-lymphocyte numbers” value with CD4 T-lymphocyte is “increased”.
